In article PMC7827406, “Structure–Activity Relationship (SAR) Study of Spautin-1 to Entail the Discovery of Novel NEK4 Inhibitors” (International Journal of Molecular Sciences, 2021):
Where two headings read alike, the source gives them in different places.

Assays:
Experiment in all cases: biochemical
Set-up in all cases: Eurofins KinaseProfiler full panel at Km ATP, residual kinase activity (%) relative to DMSO
DNA-PK(h) = molecular target: T1, DNA-PK(h) (Homo sapiens, UniProt P78527)
T1 construct: gene PRKDC
In short: (§1)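 Compounds screened at 10 µM in radiometric kinase activity assays at Km ATP, reported as remaining kinase activity (%). A KINOMEscan competition-binding screen at 10 µM measured DNA-tagged kinase retained on immobilized active-site ligand by qPCR.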

EphA5(h) = EphA5(h) (Homo sapiens, UniProt P54756)
Sequence of EphA5(h) (P54756 whole entry): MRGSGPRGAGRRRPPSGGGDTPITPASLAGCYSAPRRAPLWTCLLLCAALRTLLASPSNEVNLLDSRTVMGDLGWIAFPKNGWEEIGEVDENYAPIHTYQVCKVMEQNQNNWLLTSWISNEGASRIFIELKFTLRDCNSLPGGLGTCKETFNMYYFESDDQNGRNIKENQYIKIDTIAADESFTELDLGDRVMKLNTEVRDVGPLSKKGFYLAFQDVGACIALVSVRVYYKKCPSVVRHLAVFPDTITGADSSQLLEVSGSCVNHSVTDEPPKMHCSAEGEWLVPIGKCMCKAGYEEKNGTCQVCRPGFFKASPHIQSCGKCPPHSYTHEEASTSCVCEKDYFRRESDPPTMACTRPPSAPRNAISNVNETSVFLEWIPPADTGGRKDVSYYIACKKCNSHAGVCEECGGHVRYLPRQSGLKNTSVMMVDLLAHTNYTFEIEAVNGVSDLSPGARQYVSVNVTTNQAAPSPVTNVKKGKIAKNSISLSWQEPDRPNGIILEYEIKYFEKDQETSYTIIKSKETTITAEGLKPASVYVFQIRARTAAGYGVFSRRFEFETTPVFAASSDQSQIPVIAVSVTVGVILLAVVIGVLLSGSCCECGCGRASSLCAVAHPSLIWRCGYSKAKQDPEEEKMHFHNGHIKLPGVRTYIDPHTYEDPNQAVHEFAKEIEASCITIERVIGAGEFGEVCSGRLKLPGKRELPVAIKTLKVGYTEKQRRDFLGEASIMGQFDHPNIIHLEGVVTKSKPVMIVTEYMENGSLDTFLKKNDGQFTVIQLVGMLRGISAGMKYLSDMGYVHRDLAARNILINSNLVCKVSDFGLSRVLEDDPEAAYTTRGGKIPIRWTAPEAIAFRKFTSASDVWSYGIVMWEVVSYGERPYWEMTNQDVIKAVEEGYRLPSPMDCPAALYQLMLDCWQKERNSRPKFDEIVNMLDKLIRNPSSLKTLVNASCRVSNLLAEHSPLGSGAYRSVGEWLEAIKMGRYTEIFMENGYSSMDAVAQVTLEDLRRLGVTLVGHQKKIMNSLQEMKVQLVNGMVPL
In short: as §1

IRAK1(h) = IRAK1(h) (Homo sapiens, UniProt P51617)
Sequence of IRAK1(h) (P51617 whole entry): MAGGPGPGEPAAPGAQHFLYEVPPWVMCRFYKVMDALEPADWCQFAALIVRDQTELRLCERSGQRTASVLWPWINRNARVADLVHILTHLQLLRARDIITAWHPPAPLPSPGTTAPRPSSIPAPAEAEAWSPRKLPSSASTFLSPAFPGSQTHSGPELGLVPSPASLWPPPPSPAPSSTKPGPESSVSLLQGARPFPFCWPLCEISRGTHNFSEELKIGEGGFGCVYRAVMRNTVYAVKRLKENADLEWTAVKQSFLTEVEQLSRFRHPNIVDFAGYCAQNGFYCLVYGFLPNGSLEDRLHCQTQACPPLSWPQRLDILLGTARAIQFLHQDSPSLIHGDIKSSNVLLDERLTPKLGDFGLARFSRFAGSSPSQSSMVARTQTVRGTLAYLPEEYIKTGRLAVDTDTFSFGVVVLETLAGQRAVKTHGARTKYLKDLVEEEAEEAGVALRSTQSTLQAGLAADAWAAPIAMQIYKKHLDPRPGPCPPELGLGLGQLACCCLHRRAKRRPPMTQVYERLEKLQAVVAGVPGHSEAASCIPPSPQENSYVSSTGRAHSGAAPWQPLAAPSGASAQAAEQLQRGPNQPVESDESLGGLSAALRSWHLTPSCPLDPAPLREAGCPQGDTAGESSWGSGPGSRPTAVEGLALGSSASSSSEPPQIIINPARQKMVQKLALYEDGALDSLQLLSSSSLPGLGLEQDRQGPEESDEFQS
In short: as §1

PAK5(h) = PAK5(h) (Homo sapiens, UniProt Q9P286)
Sequence of PAK5(h) (Q9P286 whole entry): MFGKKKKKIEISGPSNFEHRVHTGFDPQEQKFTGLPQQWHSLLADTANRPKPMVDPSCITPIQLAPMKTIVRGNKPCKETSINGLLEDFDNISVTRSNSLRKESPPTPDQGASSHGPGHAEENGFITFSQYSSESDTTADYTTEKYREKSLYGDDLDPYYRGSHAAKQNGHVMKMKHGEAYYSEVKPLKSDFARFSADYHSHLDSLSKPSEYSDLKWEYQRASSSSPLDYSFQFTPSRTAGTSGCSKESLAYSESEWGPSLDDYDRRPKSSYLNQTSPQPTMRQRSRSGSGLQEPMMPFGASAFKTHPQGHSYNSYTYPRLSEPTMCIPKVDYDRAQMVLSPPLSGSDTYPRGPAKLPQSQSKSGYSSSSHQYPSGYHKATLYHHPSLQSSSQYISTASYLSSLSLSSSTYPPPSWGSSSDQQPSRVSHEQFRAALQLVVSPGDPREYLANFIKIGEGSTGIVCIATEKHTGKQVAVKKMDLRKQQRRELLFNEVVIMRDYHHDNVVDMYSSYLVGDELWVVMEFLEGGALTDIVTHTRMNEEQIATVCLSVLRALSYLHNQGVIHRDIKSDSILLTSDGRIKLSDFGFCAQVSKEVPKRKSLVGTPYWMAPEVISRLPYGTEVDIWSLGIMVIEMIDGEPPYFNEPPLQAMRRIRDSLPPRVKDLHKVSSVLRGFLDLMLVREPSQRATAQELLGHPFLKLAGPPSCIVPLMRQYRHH
In short: as §1

PKBα(h) = molecular target: T2, PKBα(h) (Homo sapiens, UniProt P31749)
T2 construct: gene AKT1
In short: as §1

PKG1β(h) = molecular target: T3, PKG1β(h) (Homo sapiens, UniProt Q13976)
T3 construct: gene PRKG1; isoform 1beta
T3 sequence (Q13976 1-671): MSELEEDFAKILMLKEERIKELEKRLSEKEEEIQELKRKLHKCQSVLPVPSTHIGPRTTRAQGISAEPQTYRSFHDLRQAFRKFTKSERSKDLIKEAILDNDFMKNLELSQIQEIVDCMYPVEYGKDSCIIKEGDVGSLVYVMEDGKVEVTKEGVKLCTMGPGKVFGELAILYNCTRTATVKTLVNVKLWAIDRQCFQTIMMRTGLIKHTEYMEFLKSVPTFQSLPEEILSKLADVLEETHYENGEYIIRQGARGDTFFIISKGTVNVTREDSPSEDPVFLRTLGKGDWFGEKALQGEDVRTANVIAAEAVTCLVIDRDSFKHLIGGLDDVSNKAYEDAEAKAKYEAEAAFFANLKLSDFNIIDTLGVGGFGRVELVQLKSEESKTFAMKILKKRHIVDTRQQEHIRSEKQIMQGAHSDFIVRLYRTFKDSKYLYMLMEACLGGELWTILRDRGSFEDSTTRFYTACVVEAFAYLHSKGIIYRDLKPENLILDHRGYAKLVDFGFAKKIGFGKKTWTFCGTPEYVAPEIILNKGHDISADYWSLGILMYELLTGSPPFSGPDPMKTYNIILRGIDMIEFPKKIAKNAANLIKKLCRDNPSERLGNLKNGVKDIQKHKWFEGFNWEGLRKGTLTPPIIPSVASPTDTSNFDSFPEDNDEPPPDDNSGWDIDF
In short: as §1

PKR(h) = molecular target: T4, PKR(h) (Homo sapiens, UniProt P19525)
T4 construct: gene EIF2AK2
T4 sequence (P19525 whole entry): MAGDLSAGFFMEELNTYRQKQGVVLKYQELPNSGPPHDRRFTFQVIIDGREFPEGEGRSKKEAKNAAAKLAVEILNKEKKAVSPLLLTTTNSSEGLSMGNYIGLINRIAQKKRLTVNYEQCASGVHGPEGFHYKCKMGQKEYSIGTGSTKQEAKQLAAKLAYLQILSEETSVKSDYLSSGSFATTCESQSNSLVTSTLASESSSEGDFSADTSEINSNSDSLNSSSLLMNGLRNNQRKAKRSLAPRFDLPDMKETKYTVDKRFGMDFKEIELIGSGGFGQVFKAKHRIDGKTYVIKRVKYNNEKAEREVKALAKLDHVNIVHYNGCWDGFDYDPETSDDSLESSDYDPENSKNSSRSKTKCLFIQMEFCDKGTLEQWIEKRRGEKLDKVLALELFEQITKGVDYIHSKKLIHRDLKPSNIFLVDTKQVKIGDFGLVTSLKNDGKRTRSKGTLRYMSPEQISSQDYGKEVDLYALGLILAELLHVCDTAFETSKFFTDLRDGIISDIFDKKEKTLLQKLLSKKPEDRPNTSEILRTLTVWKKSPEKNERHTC
In short: as §1

PRKG2(h) = molecular target: T5, PRKG2(h) (Homo sapiens, UniProt Q13237)
T5 sequence (Q13237 1-762): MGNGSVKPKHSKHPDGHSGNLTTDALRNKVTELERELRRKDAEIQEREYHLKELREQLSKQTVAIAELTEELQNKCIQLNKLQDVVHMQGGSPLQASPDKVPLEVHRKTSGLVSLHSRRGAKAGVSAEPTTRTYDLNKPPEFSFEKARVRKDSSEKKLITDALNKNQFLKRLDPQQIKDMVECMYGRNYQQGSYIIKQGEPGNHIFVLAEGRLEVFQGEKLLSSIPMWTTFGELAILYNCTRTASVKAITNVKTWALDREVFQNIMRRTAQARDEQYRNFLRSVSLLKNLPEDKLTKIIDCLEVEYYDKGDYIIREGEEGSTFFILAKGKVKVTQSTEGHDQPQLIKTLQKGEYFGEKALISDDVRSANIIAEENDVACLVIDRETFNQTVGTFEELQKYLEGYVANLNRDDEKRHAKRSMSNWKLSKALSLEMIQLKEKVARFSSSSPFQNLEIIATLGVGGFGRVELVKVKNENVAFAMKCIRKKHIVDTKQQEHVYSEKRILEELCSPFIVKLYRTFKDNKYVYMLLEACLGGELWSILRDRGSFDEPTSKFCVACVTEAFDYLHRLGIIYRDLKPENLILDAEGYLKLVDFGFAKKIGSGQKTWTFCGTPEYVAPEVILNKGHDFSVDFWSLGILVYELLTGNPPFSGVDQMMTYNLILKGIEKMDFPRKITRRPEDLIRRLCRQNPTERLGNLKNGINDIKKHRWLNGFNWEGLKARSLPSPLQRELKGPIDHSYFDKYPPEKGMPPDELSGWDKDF
In short: as §1

Plk3(h) = Plk3(h) (Homo sapiens, UniProt Q9H4B4)
Sequence of Plk3(h) (Q9H4B4 whole entry): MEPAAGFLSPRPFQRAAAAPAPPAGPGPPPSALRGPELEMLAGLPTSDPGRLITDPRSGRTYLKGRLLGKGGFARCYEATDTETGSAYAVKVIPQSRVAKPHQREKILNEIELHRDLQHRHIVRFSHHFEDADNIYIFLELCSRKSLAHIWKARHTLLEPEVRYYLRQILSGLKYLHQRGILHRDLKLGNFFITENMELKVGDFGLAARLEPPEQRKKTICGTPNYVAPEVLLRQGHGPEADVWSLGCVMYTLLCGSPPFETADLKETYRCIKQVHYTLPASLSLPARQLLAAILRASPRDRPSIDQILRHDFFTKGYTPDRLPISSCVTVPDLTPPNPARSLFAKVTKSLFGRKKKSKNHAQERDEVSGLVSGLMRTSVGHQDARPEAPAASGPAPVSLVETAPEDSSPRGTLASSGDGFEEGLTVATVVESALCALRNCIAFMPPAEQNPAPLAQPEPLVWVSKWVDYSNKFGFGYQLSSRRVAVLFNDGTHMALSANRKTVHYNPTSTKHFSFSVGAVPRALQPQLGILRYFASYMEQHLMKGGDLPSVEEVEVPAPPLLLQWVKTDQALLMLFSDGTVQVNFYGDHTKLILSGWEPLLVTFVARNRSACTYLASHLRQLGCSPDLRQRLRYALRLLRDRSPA
In short: as §1

ROCK-II(h) = molecular target: T6, ROCK-II(h) (Homo sapiens, UniProt O75116)
T6 construct: gene ROCK2
T6 sequence (O75116 whole entry): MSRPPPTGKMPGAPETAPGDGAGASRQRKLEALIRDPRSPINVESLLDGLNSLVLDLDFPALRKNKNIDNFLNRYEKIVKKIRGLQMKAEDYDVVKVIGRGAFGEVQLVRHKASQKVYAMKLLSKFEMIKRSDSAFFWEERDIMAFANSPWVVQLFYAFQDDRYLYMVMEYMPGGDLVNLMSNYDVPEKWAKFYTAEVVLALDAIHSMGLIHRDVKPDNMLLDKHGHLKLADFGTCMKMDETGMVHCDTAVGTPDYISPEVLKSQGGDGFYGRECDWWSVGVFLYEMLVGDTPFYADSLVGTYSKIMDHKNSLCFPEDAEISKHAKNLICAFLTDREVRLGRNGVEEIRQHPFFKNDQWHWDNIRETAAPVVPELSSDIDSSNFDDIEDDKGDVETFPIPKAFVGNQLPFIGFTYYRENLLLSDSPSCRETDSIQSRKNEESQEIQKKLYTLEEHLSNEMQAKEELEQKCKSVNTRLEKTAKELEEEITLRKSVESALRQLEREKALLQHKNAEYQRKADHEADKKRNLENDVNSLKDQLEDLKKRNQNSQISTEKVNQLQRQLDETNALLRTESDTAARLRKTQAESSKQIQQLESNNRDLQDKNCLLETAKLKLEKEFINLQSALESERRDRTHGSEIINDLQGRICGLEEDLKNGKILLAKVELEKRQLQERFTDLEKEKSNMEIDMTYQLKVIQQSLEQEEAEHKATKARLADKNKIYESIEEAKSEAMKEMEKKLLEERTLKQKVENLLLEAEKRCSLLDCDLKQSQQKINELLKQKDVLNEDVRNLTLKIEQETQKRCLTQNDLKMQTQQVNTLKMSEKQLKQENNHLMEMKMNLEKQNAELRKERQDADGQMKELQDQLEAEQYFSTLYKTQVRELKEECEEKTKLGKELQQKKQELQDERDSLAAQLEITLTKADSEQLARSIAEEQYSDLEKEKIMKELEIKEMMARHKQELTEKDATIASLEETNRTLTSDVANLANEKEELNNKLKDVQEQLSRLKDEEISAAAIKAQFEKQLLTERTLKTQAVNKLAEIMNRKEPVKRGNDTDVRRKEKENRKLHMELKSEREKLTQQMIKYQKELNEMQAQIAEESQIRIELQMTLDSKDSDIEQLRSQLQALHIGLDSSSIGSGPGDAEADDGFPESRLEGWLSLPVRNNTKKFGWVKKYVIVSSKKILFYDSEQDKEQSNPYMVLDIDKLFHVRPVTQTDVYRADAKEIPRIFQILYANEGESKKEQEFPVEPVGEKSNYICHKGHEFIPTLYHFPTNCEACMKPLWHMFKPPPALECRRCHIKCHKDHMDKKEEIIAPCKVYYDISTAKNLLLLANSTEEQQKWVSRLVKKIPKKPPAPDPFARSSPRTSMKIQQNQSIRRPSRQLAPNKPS
In short: as §1

[1] = read-out: Residual activity (%) Spautin-1 5aa
[2] = read-out: Residual activity (%) 5as
[3] = read-out: Residual activity (%) 5at
[4] = read-out: Residual activity (%) 5ay

Compound `Fc1ccc(CNc2ncnc3ccc(F)cc23)cc1` [5aa, 6-Fluoro-N-(4-fluorobenzyl)-4-Quinazolinamine] has a remaining activity at 10 µM (DNA-PK(h); [1]) of 89%, a remaining activity at 10 µM (EphA5(h); [1]) of 90% and a remaining activity at 10 µM (IRAK1(h); [1]) of 114%. The remaining activity at 10 µM (PAK5(h); [1]) was 95%, the remaining activity at 10 µM (PKBα(h); [1]) was 86% and the remaining activity at 10 µM (PKG1β(h); [1]) was 91%. It also gave a remaining activity at 10 µM (PKR(h); [1]) of 100%, a remaining activity at 10 µM (PRKG2(h); [1]) of 103% and a remaining activity at 10 µM (Plk3(h); [1]) of 88%. The remaining activity at 10 µM (ROCK-II(h); [1]) was 88%.

`Fc1ccc(CCNc2ncnc3ccc(F)cc23)cc1` [5as, 6-Fluoro-N-[2-(4-Fluorophenyl)Ethyl]-4-Quinazolinamine] gave a remaining activity at 10 µM (DNA-PK(h); [2]) of 74%, a remaining activity at 10 µM (EphA5(h); [2]) of 99% and a remaining activity at 10 µM (IRAK1(h); [2]) of 87%. For the same compound, the remaining activity at 10 µM (PAK5(h); [2]) was 85%, the remaining activity at 10 µM (PKBα(h); [2]) was 98% and the remaining activity at 10 µM (PKG1β(h); [2]) was 84%. It also gave a remaining activity at 10 µM (PKR(h); [2]) of 98%, a remaining activity at 10 µM (PRKG2(h); [2]) of 96% and a remaining activity at 10 µM (Plk3(h); [2]) of 94%. For the same compound, the remaining activity at 10 µM (ROCK-II(h); [2]) was 81%.

`Fc1ccc2ncnc(NCCc3ccc(Cl)cc3)c2c1` [5at, N-[2-(4-Chlorophenyl)Ethyl]-6-Fluoro-4-Quinazolinamine] gave a remaining activity at 10 µM (DNA-PK(h); [3]) of 85%, a remaining activity at 10 µM (EphA5(h); [3]) of 87% and a remaining activity at 10 µM (IRAK1(h); [3]) of 106%. For the same compound, the remaining activity at 10 µM (PAK5(h); [3]) was 86%, the remaining activity at 10 µM (PKBα(h); [3]) was 89% and the remaining activity at 10 µM (PKG1β(h); [3]) was 76%. It also gave a remaining activity at 10 µM (PKR(h); [3]) of 94%, a remaining activity at 10 µM (PRKG2(h); [3]) of 79% and a remaining activity at 10 µM (Plk3(h); [3]) of 99%. For the same compound, the remaining activity at 10 µM (ROCK-II(h); [3]) was 79%.

Compound `COc1ccc2ncnc(Nc3cccc(F)c3)c2c1` [5ay, N-(3-Fluorophenyl)-6-Methoxy-4-Quinazolinamine] has a remaining activity at 10 µM (DNA-PK(h); [4]) of 72%, a remaining activity at 10 µM (EphA5(h); [4]) of 95% and a remaining activity at 10 µM (IRAK1(h); [4]) of 87%. For the same compound, the remaining activity at 10 µM (PAK5(h); [4]) was 83%, the remaining activity at 10 µM (PKBα(h); [4]) was 88% and the remaining activity at 10 µM (PKG1β(h); [4]) was 94%. For the same compound, the remaining activity at 10 µM (PKR(h); [4]) was 71%, the remaining activity at 10 µM (PRKG2(h); [4]) was 113% and the remaining activity at 10 µM (Plk3(h); [4]) was 92%. It also gave a remaining activity at 10 µM (ROCK-II(h); [4]) of 84%.
